Where a name gives a salt, the structure may show the parent alone.
Key:
HFD-fed mouse = assay: Fecal protein concentration-increasing test using HFD-fed mouse; assay type: in vivo; settings: HFD-fed mice, 10 mg/kg oral, whole feces of first day of administration, group average
Protocol: High fat diet-fed (HFD-fed) mice (D12079B diet, male, 19-week old) were orally administered with a 0.5% methyl cellulose suspension containing a test compound (10 mg/kg) (compound administration group, six mice per group) or a 0.5% methyl cellulose suspension (compound non-administration group (vehicle), five mice per group), and whole feces were collected on the first day of administration. Dried feces were dissolved in 0.5 N NaOH, followed by centrifugation at 12,000 rpm. The protein concentration in the supernatant was then quantitatively measured (Lowry method), and the amount of protein contained in 1 g of feces was calculated as the fecal protein concentration (mg/g feces). The average of each group is shown below.

[1] = target: T1, Human recombinant enteropeptidase (Homo sapiens, UniProt P98073); assay: Human enteropeptidase inhibitory activity; assay type: biochemical; settings: 3.3 μM test compound; fluorescence intensity at 2 hours after start of reaction; read-out: Inhibition rate at 3.3 μM
T1 construct: purchased ITSI-Biosciences LLC #REN-260
T1 sequence (P98073 whole entry): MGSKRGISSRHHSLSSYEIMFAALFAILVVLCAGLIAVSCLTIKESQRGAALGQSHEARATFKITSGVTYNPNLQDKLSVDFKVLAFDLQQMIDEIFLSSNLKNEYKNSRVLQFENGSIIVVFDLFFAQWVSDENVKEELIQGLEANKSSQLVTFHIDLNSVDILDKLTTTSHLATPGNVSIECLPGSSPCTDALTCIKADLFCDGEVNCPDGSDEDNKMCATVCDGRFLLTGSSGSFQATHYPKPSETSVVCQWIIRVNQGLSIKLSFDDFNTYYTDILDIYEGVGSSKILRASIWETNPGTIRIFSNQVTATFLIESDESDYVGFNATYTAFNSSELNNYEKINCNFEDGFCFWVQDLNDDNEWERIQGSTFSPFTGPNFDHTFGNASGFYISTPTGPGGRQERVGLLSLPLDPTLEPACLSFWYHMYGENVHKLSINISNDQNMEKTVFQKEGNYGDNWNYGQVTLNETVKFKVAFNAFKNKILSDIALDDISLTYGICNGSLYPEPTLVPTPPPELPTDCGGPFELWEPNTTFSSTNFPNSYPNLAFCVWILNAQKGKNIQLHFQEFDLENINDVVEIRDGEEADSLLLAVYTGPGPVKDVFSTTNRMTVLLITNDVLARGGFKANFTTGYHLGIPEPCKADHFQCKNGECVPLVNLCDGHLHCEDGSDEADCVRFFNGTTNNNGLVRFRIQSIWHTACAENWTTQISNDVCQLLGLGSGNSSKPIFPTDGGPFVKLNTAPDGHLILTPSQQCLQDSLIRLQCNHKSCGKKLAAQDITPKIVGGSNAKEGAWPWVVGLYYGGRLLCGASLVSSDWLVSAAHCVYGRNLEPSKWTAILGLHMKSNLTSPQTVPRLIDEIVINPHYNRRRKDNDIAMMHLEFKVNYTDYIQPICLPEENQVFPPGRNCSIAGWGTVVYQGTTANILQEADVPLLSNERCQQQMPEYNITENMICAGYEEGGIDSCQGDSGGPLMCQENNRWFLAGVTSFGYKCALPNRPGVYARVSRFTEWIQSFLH
Protocol: Human recombinant enteropeptidase (#REN-260, ITSI-Biosciences LLC) was diluted with an assay buffer (50 mM Tricine, pH 8.0, 0.01 (w/v) %, Tween 20, 10 mM CaCl2) to prepare a 24 mU/mL enzyme solution. Subsequently, 5FAM-Abu-Gly-Asp-Asp-Asp-Lys-Ile-Val-Gly-Gly-Lys(CPQ2)-Lys-Lys-NH2 (purity: 97.2%, CPC Scientific Inc., SEQ ID NO: 1) was diluted with the assay buffer to prepare a 2.1 μM substrate solution. A test compound is dissolved in DMSO into a 1 mM solution, and the solution was diluted by 100-fold with the assay buffer to give a compound solution. To a 384-well black plate (#784076, Greiner Bio-One), 5 μL of the compound solution and 5 μL of the substrate solution were added and mixed, and 5 μL of the enzyme solution was then added to the mixture, followed by mixing to start the reaction. The fluorescence intensity was measured with a fluorescence plate reader EnVision (The Perkin-Elmer Corp.) at an excitation wavelength of 485 nm and a fluorescence wavelength of 535 nm. The same reaction as above except that the test compound was not contained was performed (test compound non-addition group). Furthermore, the same reaction as above except that the test compound and the enzyme were not contained was performed (control group). The inhibition rate was calculated using the fluorescence intensity at 2 hours after the start of the reaction by the following expression: Inhibition rate (%)=(1-((fluorescence intensity of test compound addition group)−(fluorescence intensity of control group))/((fluorescence intensity of test compound non-addition group)−(fluorescence intensity of control group)))×100

DIO mouse = assay: Anti-obesity effect test using DIO mouse; assay type: in vivo; settings: DIO mice, group average
Protocol: Diet-induced obesity (DIO) mice (D12079B diet, male, 32-week old) were orally administered with a 0.5% methyl cellulose suspension containing a test compound (30 mg/kg) (compound administration group, six mice per group) or a 0.5% methyl cellulose suspension (compound non-administration group (vehicle), six mice per group) once a day for eight days. The averages of the body weights at the start of administration and after continuous administration for eight days are shown below.

Row | Compound | inhibition at 3.3 µM [1] [%] | Fecal protein concentration (HFD-fed mouse) [mg/g feces] | Body weight (g) After continuous administration for 8 days (DIO mouse; 30 mg/kg oral once a day for eight days) [g] | Body weight (g) At start of administration (DIO mouse; 30 mg/kg oral once a day, baseline) [g]
1 | N=C(N)Nc1ccc(C(=O)Oc2cc3c(c(C(=O)NCCS(=O)(=O)O)c2)CCO3)cc1 [Example 1, 2-(((6-((4-Carbamimidamidobenzoyl)oxy)-2,3-dihydro-1-benzofuran-4-yl)carbonyl)amino)ethanesulfonic acid] | 101 | 188.8 | 42.8 | 43.5
2 | N=C(N)Nc1ccc(C(=O)Oc2cc3c(c(C(=O)NCCCS(=O)(=O)O)c2)CCO3)cc1 [Example 2, 3-(((6-((4-carbamimidamindobenzoyl)oxy)-2,3-dihydro-1-benzofuran-4-yl)carbonyl)amino)propane-1-sulfonic acid] | 101 |  |  | 
3 | N=C(N)Nc1ccc(C(=O)Oc2cc3c(c(C(=O)NCS(=O)(=O)O)c2)CCO3)cc1 [Example 3, (((6-((4-carbamimidamindobenzoyl)oxy)-2,3-dihydro-1-benzofuran-4-yl)carbonyl)amino)methanesulfonic acid] | 101 |  |  | 
4 | N=C(N)Nc1ccc(C(=O)Oc2cc3c(c(C(=O)NCP(=O)(O)O)c2)CCO3)cc1 [Example 4, ((((6-((4-Carbamimidamidobenzoyl)oxy)-2,3-dihydro-1-benzofuran-4-yl)carbonyl)amino)methyl)phosphonic acid hydrochloride] | 101 |  |  | 

Further lines, with some results ahead:

Row | inhibition at 3.3 µM [1] [%] | Compound | Fecal protein concentration (HFD-fed mouse) [mg/g feces] | Body weight (g) After continuous administration for 8 days (DIO mouse; 30 mg/kg oral once a day for eight days) [g] | Body weight (g) At start of administration (DIO mouse; 30 mg/kg oral once a day, baseline) [g]
5 | 100 | CC1(C)Cc2c(cc(OC(=O)c3ccc(NC(=N)N)cc3)cc2C2=NOC(CC(=O)O)(C(=O)O)C2)O1 (stereo not drawn) [Example 5, 3-(6-((4-carbamimidamindobenzoyl)oxy)-2,2-dimethyl-2,3-dihydro-1-benzofuran-4-yl)-5-(carboxymethyl)-4,5-dihydro-1,2-oxazole-5-carboxylic acid] |  |  | 
6 | 101 | N=C(N)Nc1ccc(C(=O)Oc2cc3c(c(C4=NOC(CC(=O)O)(C(=O)O)C4)c2)CCO3)cc1 (stereo not drawn) [Example 6, 3-(6-((4-Carbamimidamidobenzoyl)oxy)-2,3-dihydro-1-benzofuran-4-yl)-5-(carboxymethyl)-4,5-dihydro-1,2-oxazole-5-carboxylic acid] |  |  | 
